Laboratory results reported in patent US20260216156A1, “METHODS AND COMPOSITIONS FOR THE TREATMENT OF HEARING DISORDERS” (Gateway Biotechnology, Inc., priority 2023, published 2026).
Where two headings read alike, the source gives them in different places.

Legend:
[1] = Microemulsion formulation: NMDP solubility and droplet size; type: physicochemical; settings: aqueous with cosolvent or surfactant or cyclodextrin, 8% Labrafil M 1944CS, 30% Cremophor RH 40/ethanol (3:1) and water
[2] = Ciliotoxicity of microemulsion formulation; settings: microemulsion: 8% Labrafil M 1944CS, 30% Cremophor RH 40/ethanol (3:1) and water
[3] = Pharmacokinetics after intranasal administration, blood samples, NMDP by HPLC; type: in vivo
[4] = test system: mice suffering from noise induced tinnitus; experiment: Sound-based avoidance detection (SBAD), No-Go trials; type: in vivo; settings: for No-Go trial correct rate: tinnitus mice
Procedure: Using a shuttle box divided into two compartments, mice were trained to cross from side to side with sound cues in the “Go” trials and remain still in the absence of sound in the “No-Go” trials for 15 days. […] The sound cues were randomly played as white noise or narrow-band noise at 5, 10, 16, 20, and 32 kHz with sound intensities randomly at 75, 80, or 85 dB. […] Additionally, a hurdle was added on training 11 to reinforce the training. After the 15th training day, mice were tested for 3 days to obtain a baseline score to be compared after noise exposure, as well as retraining for 3 days. Following the successful completion of training so that mice reached a high percentage of success in the trials, the mice were exposed to a noise-induced trauma for tinnitus. To ensure that the mice still have their hearing, one ear was protected with an ear plug, while the other ear was exposed to the noise. The mice were placed in a sound booth where they were exposed to 120 dB broadband noise at 4-25 kHz for 2-4 hours. Following the noise exposure, the mice were housed for one month, and then tested to see if they have developed tinnitus. In these testing periods, the mice were tested for three days in the shuttle boxes, where they underwent the Go and No-Go trials, however in the No-Go trials the mice were not shocked, as it is expected that mice with tinnitus would cross compartments in the absence of a sound cue. The mice were continued to be shocked in the Go trials in order to ensure that they have retained their hearing and can hear the sound cues. […] To insure there is a significant difference in the No-Go trial scores, chi-square tests were completed comparing the post-noise exposure tests to the baseline tests. However, if tinnitus is not present in the mice, tests were done after waiting one more month, and another if needed. Mice received dosages of NMDP initially via intraperitoneal injection (i.p.). The Go and No-Go scores for the tests were compared using chi-square tests in Social Science Statistics. […] Following this conclusion, the mice were tested accordingly to determine if their No-Go scores could be improved by different drug doses and combinations.

[5] = test system: mice suffering from noise induced tinnitus; experiment: Sound-based avoidance detection (SBAD), Go trials; type: in vivo
Procedure: Using a shuttle box divided into two compartments, mice were trained to cross from side to side with sound cues in the “Go” trials and remain still in the absence of sound in the “No-Go” trials for 15 days. […] The sound cues were randomly played as white noise or narrow-band noise at 5, 10, 16, 20, and 32 kHz with sound intensities randomly at 75, 80, or 85 dB. […] Additionally, a hurdle was added on training 11 to reinforce the training. After the 15th training day, mice were tested for 3 days to obtain a baseline score to be compared after noise exposure, as well as retraining for 3 days. Following the successful completion of training so that mice reached a high percentage of success in the trials, the mice were exposed to a noise-induced trauma for tinnitus. To ensure that the mice still have their hearing, one ear was protected with an ear plug, while the other ear was exposed to the noise. The mice were placed in a sound booth where they were exposed to 120 dB broadband noise at 4-25 kHz for 2-4 hours. Following the noise exposure, the mice were housed for one month, and then tested to see if they have developed tinnitus. In these testing periods, the mice were tested for three days in the shuttle boxes, where they underwent the Go and No-Go trials, however in the No-Go trials the mice were not shocked, as it is expected that mice with tinnitus would cross compartments in the absence of a sound cue. The mice were continued to be shocked in the Go trials in order to ensure that they have retained their hearing and can hear the sound cues. […] To insure there is a significant difference in the No-Go trial scores, chi-square tests were completed comparing the post-noise exposure tests to the baseline tests. However, if tinnitus is not present in the mice, tests were done after waiting one more month, and another if needed. Mice received dosages of NMDP initially via intraperitoneal injection (i.p.). The Go and No-Go scores for the tests were compared using chi-square tests in Social Science Statistics. […]

[6] = cited from earlier work
[7] = cited from earlier work; for Bioavailability outside of the central nervous system: humans
[8] = after feeding to rats; cited from earlier work
[9] = anesthetized rats, cited from earlier work

COCCOC(=O)C1=C(C)NC(C)=C(C(=O)OC(C)C)C1c1cccc([N+](=O)[O-])c1 (centres unmarked) [NMDP, nimodipine]
solubility [1]: ≤ 6400 µg/mL
ciliotoxicity [2]: no ciliotoxicity
pharmacokinetics, intranasal versus intravenous ([3]; Example 1: carrier, citrate buffer, benzalkonium chloride, water, about 50 mg/mL, 50 μL per nasal cavity): comparable to that of intravenously administered NMDP
pharmacokinetics, intranasal versus intravenous ([3]; Example 2: carriers, non-aqueous solvent, surfactant, about 50 mg/mL, 50 μL per nasal cavity): comparable to that of intravenously administered NMDP
pharmacokinetics, intranasal versus intravenous ([3]; Example 3: mPEG350, PEG400, water, no non-ionic surfactant, about 100 mg/ml, 50 μL per nasal cavity): comparable to that of intravenously administered NMDP
pharmacokinetics, intranasal versus intravenous ([3]; Example 4: mPEG350, PEG400, water, ethanol, no non-ionic surfactant, about 100 mg/mL, 50 μL per nasal cavity): comparable to that of intravenously administered NMDP
pharmacokinetics, intranasal versus intravenous ([3]; Example 7: six volunteer subjects with tinnitus, nasal spray of Example 5, 50 μL per nare, about 20 mg): comparable to that of intravenously administered NMDP
pharmacokinetics, intranasal versus intravenous ([3]; Example 8: vesicular composition (phospholipid, C2-C4 alcohols, water), about 200 mg/mL, 50 μL per nasal cavity): comparable to that of intravenously administered NMDP
bioavailability ([3]; human, plasma, inhaled or intranasal, microemulsion, single intranasal administration, 2 mg/kg, read-out: absolute bioavailability): ~32%
time of plasma concentration peak ([3]; microemulsion, single intranasal administration, 2 mg/kg): 1 h
No-Go scores: behavioral changes ([4]; mice, 10, 30, and 50 mg/kg i.p.): did not cause any behavioral changes
No-Go trial correct rate ([4]; 30 mg/kg i.p.): ~100 % correct
No-Go trial correct rate ([4]; 50 mg/kg i.p.): ~100 % correct
No-Go trial correct rate ([4]; intranasal formulation of Example 15 F1, 0.9 mg/mouse (or 30 mg/kg)): ~100 % correct
Go trial correct rate ([5]; 10 mg/kg i.p.): ~100 % correct
Go trial correct rate ([5]; 30 mg/kg i.p.): ~100 % correct
Go scores: effect on ability to hear the sounds presented ([5]; i.p.): did not have an effect
Water solubility [6]: 12 µg/mL
water solubility (in words) [6]: poor water solubility
solubility in ethanol ([6]; ethanol): freely soluble
share of NMDP reaching the brain ([7]; due to high affinity binding of plasma proteins): 5%
Bioavailability outside of the central nervous system ([7]; intravenous administration): 100%
Bioavailability outside of the central nervous system ([7]; oral administration, extensive first-pass metabolism): 3-30%

Phaseolus vulgaris hemagglutinin
oral bioavailability [8]: more than 10%

human growth hormone: human growth hormone, nasal bioavailability modestly increased by N-acetyl-L-cysteine
nasal bioavailability ([9]; with N-acetyl-L-cysteine): 12.2%
nasal bioavailability ([9]; without N-acetyl-L-cysteine): 7.5%
